From article PMC6326728, “eIF2B activator prevents neurological defects caused by a chronic integrated stress response” (eLife, 2019) come the findings set out here.

Common to all, as to assay: biochemical
Common to all, as to design: CEREP panel radioligand binding displacement, % inhibition of control specific binding by 10 uM 2BAct

One assay concerns the target T1, Estrogen ER alpha (h) (Homo sapiens, UniProt P03372).
T1 construct: gene ESR1
Particulars: Type=Agonist radioligand; read-out: % inhibition of Control specific binding. The protocol: (§1) Supplementary file elife-42940-supp1.xlsx: Supplementary file 1. (A) Binding of 2BAct at 10 μM to the CEREP panel of receptors/enzymes/ion channels. Compound binding was calculated as a % inhibition of the binding of a radioactively labeled ligand specific for each target. Results showing inhibition or stimulation higher than 50% are considered to represent significant effects of the test compound. (B) Pharmacokinetic data from 2BAct dosing in mice. (C) GO Biological Processes identified by enrichment analysis of RNA-seq data. (D) List of genes used for enrichment analysis of scRNA-seq data.

For assay [1], the target named is T2, A2a (h) (Homo sapiens, UniProt P29274).
T2 construct: gene ADORA2A
The settings on record: Type=Agonist radioligand; read-out: % inhibition of Control specific binding. As to the method:
as §1

Assay [2] has as its target T3, a2A (h) (Homo sapiens, UniProt P08913).
T3 construct: gene ADRA2A
The settings on record: Type=Antagonist radioligand; read-out: % inhibition of Control specific binding. The protocol:
as §1

The target in the next assay is T4, a1B (h) (Homo sapiens, UniProt P35368).
T4 construct: gene ADRA1B
The settings on record: Type=Antagonist radioligand; read-out: % inhibition of Control specific binding. The protocol:
as §1

The next assay concerns the target AR (h) (Homo sapiens, UniProt P10275). Particulars: Type=Agonist radioligand; read-out: % inhibition of Control specific binding. The protocol: as §1
Another assay deals with T5, D1 (h) (Homo sapiens, UniProt P21728).
T5 construct: gene DRD1
Particulars: Type=Antagonist radioligand; read-out: % inhibition of Control specific binding. As to the method: as §1

The next assay deals with T6, D2S (h) (Homo sapiens, UniProt P14416).
T6 construct: gene DRD2; short isoform (D2S)
The settings on record: Type=Antagonist radioligand; read-out: % inhibition of Control specific binding. The protocol:
as §1

A further assay addresses T7, Y1 (h) (Homo sapiens, UniProt P25929).
T7 construct: gene NPY1R
Particulars: Type=Agonist radioligand; read-out: % inhibition of Control specific binding. As to the method:
as §1

The target of another assay is T8, 5-HT1A (h) (Homo sapiens, UniProt P08908).
T8 construct: gene HTR1A
Particulars: Type=Agonist radioligand; read-out: % inhibition of Control specific binding. As to the method:
as §1

Another assay deals with T9, d (DOP) (h) (Homo sapiens, UniProt P41143).
T9 construct: gene OPRD1
Particulars: Type=Agonist radioligand; read-out: % inhibition of Control specific binding. The protocol:
as §1

Another assay has as its target T10, A2b (h) (Homo sapiens, UniProt P29275).
T10 construct: gene ADORA2B
Particulars: Type=Antagonist radioligand; read-out: % inhibition of Control specific binding. The protocol:
as §1

For a further assay, the target named is T11, CB2 (h) (Homo sapiens, UniProt P34972).
T11 construct: gene CNR2
The settings on record: Type=Agonist radioligand; read-out: % inhibition of Control specific binding. As to the method:
as §1

A further assay addresses T12, M3 (h) (Homo sapiens, UniProt P20309).
T12 construct: gene CHRM3
The settings on record: Type=Antagonist radioligand; read-out: % inhibition of Control specific binding. The protocol: as §1

The target in the next assay is T13, b2 (h) (Homo sapiens, UniProt P07550).
T13 construct: gene ADRB2
Particulars: Type=Agonist radioligand; read-out: % inhibition of Control specific binding. As to the method: as §1

In the next assay the target is T14, NK2 (h) (Homo sapiens, UniProt P21452).
T14 construct: gene TACR2
Particulars: Type=Agonist radioligand; read-out: % inhibition of Control specific binding. The protocol: as §1

For another assay, the target named is T15, ET-B (h) (Homo sapiens, UniProt P24530).
T15 construct: gene EDNRB
The settings on record: Type=Agonist radioligand; read-out: % inhibition of Control specific binding. The protocol:
as §1

Another assay deals with T16, UT (h) (Homo sapiens, UniProt Q9UKP6).
T16 construct: gene UTS2R
Particulars: Type=Agonist radioligand; read-out: % inhibition of Control specific binding. As to the method:
as §1

The target in a further assay is T17, GABA-A1 (h) (a1, b2, g2) (Homo sapiens, UniProt P14867+P18507+P47870).
T17 construct: gene GABRA1; a1, b2, g2
Particulars: Type=Agonist radioligand; read-out: % inhibition of Control specific binding. As to the method:
as §1

A further assay has as its target T18, k (KOP) (Rattus norvegicus, UniProt P34975).
T18 construct: gene Oprk1
The settings on record: Type=Agonist radioligand; read-out: % inhibition of Control specific binding. As to the method:
as §1

The target of the next assay is T19, a1A (h) (Homo sapiens, UniProt P35348).
T19 construct: gene ADRA1A
Particulars: Type=Antagonist radioligand; read-out: % inhibition of Control specific binding. As to the method: as §1

In the next assay the target is T20, A3 (h) (Homo sapiens, UniProt P0DMS8).
T20 construct: gene ADORA3
The settings on record: Type=Agonist radioligand; read-out: % inhibition of Control specific binding. The protocol:
as §1

T1 sequence (P03372 whole entry): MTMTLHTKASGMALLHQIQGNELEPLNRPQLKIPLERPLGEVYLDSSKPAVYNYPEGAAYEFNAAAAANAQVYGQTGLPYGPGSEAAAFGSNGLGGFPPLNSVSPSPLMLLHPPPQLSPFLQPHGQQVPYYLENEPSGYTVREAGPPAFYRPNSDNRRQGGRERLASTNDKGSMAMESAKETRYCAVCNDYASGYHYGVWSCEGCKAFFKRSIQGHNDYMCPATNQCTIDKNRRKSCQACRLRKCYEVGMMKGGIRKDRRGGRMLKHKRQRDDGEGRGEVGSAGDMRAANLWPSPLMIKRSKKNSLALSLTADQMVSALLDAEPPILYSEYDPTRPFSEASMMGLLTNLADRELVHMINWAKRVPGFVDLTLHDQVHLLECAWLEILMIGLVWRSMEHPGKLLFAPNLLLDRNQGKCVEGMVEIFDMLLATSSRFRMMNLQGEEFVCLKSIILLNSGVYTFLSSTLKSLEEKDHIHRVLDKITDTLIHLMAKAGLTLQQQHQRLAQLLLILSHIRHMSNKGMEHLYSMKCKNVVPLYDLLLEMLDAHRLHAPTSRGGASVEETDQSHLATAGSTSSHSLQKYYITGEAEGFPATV
T13 sequence (P07550 whole entry): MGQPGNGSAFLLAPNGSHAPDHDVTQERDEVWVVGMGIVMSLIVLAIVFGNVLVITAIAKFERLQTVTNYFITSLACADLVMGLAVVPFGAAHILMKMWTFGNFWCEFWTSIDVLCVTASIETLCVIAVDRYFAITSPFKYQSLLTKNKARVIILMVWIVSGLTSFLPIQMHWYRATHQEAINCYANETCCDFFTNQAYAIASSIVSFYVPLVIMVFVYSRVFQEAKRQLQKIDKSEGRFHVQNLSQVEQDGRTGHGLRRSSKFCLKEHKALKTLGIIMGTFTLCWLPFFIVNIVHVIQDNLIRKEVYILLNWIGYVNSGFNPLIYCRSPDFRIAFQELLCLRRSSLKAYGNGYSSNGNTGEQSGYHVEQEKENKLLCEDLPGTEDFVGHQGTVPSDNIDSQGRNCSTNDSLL
T2 sequence (P29274 whole entry): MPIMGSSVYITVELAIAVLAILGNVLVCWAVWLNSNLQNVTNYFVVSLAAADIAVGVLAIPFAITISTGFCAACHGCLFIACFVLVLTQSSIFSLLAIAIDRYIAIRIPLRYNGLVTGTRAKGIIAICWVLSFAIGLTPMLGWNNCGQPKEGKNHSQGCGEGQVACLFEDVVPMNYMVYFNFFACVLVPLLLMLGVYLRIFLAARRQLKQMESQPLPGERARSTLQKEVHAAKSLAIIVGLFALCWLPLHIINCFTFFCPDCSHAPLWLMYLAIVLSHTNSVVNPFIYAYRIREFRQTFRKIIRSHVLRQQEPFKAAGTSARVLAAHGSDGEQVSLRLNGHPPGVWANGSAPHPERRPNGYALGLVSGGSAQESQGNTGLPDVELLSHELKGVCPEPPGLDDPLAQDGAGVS
Chain of AR (h) (P10275 whole entry): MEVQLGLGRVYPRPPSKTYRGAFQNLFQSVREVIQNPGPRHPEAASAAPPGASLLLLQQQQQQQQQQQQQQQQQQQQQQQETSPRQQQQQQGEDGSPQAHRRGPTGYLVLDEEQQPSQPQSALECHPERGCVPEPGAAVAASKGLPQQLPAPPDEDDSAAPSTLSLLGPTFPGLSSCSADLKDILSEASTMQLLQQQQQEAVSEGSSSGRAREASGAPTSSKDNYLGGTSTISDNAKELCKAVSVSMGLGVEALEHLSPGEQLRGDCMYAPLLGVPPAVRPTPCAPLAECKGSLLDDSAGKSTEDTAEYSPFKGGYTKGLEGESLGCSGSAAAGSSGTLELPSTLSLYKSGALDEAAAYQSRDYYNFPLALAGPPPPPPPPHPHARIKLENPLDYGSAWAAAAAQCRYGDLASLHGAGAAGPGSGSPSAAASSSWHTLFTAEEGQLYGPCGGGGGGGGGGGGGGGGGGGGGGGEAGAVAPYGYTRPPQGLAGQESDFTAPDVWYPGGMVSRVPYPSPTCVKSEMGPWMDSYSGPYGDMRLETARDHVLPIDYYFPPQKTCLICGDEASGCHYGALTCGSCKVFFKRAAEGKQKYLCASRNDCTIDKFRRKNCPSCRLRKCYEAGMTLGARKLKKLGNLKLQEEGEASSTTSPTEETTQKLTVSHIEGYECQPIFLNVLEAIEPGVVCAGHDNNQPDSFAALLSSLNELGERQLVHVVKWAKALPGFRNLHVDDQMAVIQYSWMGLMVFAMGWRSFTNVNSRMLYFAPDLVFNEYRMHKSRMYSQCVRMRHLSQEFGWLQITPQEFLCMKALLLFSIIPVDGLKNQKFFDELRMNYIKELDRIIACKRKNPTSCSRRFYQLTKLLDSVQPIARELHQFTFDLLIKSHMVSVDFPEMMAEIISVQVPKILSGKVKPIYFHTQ
T7 sequence (P25929 whole entry): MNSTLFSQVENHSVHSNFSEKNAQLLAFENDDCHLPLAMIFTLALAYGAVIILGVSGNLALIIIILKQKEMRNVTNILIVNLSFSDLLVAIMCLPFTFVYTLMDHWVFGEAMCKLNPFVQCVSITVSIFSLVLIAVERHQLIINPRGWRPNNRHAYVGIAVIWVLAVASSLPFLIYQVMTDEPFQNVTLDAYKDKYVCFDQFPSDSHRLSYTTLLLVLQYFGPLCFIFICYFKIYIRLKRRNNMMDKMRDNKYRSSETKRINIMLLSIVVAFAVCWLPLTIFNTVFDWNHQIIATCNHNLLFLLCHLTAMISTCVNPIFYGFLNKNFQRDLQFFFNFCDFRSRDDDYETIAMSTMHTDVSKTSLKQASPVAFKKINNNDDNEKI
T8 sequence (P08908 whole entry): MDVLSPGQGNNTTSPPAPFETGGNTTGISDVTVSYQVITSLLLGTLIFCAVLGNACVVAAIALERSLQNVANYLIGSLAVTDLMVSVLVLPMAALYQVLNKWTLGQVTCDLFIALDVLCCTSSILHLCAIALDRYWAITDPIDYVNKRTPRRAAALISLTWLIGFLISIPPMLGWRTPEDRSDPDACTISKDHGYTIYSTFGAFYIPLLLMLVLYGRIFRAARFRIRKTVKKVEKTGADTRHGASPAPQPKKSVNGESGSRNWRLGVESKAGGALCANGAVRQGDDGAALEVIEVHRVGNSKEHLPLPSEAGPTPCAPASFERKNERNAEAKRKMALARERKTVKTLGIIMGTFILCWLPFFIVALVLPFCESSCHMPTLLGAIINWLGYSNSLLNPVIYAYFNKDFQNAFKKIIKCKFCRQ
T14 sequence (P21452 whole entry): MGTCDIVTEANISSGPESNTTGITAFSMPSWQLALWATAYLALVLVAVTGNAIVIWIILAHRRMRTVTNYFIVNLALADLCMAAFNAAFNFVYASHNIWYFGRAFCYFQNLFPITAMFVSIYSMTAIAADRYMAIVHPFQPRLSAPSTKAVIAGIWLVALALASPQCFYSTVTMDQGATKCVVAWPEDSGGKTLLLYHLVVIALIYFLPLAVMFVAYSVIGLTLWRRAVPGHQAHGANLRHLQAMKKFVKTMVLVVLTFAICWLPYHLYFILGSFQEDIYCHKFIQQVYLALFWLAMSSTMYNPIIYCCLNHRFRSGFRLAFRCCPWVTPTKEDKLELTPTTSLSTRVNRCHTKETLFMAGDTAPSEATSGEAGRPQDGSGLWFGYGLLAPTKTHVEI
T10 sequence (P29275 whole entry): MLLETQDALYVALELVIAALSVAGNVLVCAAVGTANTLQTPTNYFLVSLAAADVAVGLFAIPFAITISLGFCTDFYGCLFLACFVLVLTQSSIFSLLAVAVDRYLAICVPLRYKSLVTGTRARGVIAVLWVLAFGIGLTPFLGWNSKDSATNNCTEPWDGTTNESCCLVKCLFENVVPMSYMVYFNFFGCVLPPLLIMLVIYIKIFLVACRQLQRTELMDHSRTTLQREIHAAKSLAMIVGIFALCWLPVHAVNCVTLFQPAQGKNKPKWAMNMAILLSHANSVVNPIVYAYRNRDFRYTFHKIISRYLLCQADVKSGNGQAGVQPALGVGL
T3 sequence (P08913 whole entry): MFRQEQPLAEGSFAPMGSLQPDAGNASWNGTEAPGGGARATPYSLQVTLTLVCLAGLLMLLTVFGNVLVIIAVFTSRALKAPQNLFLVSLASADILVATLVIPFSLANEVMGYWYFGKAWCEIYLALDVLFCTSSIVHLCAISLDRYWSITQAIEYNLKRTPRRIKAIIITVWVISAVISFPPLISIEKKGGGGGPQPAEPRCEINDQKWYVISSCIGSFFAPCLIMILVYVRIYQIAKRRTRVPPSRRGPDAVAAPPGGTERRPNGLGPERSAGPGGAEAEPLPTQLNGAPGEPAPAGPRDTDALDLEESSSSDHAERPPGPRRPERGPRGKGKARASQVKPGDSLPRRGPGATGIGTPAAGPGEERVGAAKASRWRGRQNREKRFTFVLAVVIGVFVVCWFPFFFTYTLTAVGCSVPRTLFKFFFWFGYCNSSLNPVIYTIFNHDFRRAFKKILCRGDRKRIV
T6 sequence (P14416 whole entry, canonical isoform): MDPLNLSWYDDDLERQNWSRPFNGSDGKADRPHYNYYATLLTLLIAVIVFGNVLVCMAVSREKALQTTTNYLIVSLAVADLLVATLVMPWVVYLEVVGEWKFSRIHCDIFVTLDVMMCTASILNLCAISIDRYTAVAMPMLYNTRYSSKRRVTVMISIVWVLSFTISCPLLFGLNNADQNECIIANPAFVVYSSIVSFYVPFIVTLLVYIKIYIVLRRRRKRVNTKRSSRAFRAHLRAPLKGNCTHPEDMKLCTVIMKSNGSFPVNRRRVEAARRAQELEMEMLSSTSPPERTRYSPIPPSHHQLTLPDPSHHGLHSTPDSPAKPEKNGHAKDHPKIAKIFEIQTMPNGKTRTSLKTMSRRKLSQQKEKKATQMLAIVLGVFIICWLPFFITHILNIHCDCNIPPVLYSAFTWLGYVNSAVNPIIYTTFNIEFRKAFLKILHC

In the case of `O=C(COc1ccc(Cl)c(F)c1)NC12CC(NC(=O)c3cnc(C(F)F)cn3)(C1)C2` [2BAct], the inhibition (usually the relative decrease from the control value, in per cent) at 10 µM at Estrogen ER alpha (h) was -7.7%; at A2a (h) [1], 24.8%; at a2A (h) [2], -5.5%; at a1B (h), -14.2%; at AR (h) it was -0.2%; on D1 (h), 5.9%. The inhibition at 10 µM at D2S (h) was 1.3%; on Y1 (h) it was -17.4%; on 5-HT1A (h), 15.8%; at d (DOP) (h) it was 2.9%; at A2b (h) it was 50.1%; at CB2 (h), 2%. Besides, the inhibition at 10 µM on M3 (h) was -0.9%; on b2 (h), 4.4%; at NK2 (h) it was 12%; at ET-B (h), 6%; on UT (h), 5.8%; at GABA-A1 (h) (a1, b2, g2), -19.5%. The inhibition at 10 µM at k (KOP) worked out at 2.1%; at a1A (h) it was 6.6%; at A3 (h) it was 20.6%.
